Values quoted from earlier work in PMC10011554, “BET inhibitor trotabresib in heavily pretreated patients with solid tumors and diffuse large B-cell lymphomas” (Nature Communications, 2023).
Where two headings read alike, the source gives them in different places.

Legend:
U-2932 (DOX-R) = system: U-2932 (DOX-R); design: method as in Report CC-90010-Pharm-1018; conditions: Table 2, ref Report CC-90010-Pharm-1018, read-out: absolute IC50, proliferation; cited from earlier work
BCRP or MRP2 = system: BCRP or MRP2; design: method as in Investigator's Brochure; conditions: BCRP or MRP2, ref Investigator's Brochure; cited from earlier work
WSU-DLCL2 (DOX-R) = system: WSU-DLCL2 (DOX-R); design: method as in Report CC-90010-Pharm-1018; conditions: Table 2, ref Report CC-90010-Pharm-1018, read-out: absolute IC50, proliferation; cited from earlier work
SU-DHL-2 (ABC DLBCL) = system: SU-DHL-2 (ABC DLBCL); design: method as in Report CC-90010-Pharm-1018; conditions: SU DHL 2, Experiment 2, ref Report CC-90010-Pharm-1018; read-out: absolute IC50, proliferation; cited from earlier work
OCI-LY-10 (ABC DLBCL) = system: OCI-LY-10 (ABC DLBCL); design: method as in Report CC-90010-Pharm-1018; conditions: OCI-LY-10, Table 2, ref Report CC-90010-Pharm-1018; read-out: absolute IC50, proliferation; cited from earlier work
OCI-LY-10 (DOX-R) = system: OCI-LY-10 (DOX-R); design: method as in Report CC-90010-Pharm-1018; conditions: Table 2, ref Report CC-90010-Pharm-1018, read-out: absolute IC50, proliferation; cited from earlier work
OAT1 = system: OAT1; design: method as in Investigator's Brochure; conditions: OAT1, 30 µM, ref Investigator's Brochure; cited from earlier work
[1] = system: CYP1A2, CYP2A6, CYP2B6, CYP2E1 and CYP3A4/5; design: method as in Investigator's Brochure; conditions: CYP1A2, CYP2A6, CYP2B6, CYP2E1 and CYP3A4/5, ref Investigator's Brochure; cited from earlier work
P-gp = system: P-gp; design: method as in Investigator's Brochure; conditions: ref Investigator's Brochure, read-out: IC50, transporter inhibition; cited from earlier work
[2] = design: method as in PMID 32240793; conditions: part A preliminary results; cited from earlier work
CYP2D6 = system: CYP2D6; design: method as in Investigator's Brochure; conditions: CYP2D6, ref Investigator's Brochure; read-out: IC50, direct inhibition; cited from earlier work
OCI-LY-19 (GCB DLBCL) = system: OCI-LY-19 (GCB DLBCL); design: method as in Report CC-90010-Pharm-1018; conditions: OCI-LY-19, Experiment 1, ref Report CC-90010-Pharm-1018; read-out: absolute IC50, proliferation; cited from earlier work
KARPAS-422 (GCB DLBCL) = system: KARPAS-422 (GCB DLBCL); design: method as in Report CC-90010-Pharm-1018; conditions: KARPAS-422, Experiment 1, ref Report CC-90010-Pharm-1018; read-out: absolute IC50, proliferation; cited from earlier work
[3] = system: COH71 TNBC PDX-derived model; design: method as in Investigator's Brochure; conditions: COH71, ref Investigator's Brochure; read-out: IC50, colony formation; cited from earlier work
SU-DHL-4 (DOX-R) = system: SU-DHL-4 (DOX-R); design: method as in Report CC-90010-Pharm-1018; conditions: Table 2, ref Report CC-90010-Pharm-1018, read-out: absolute IC50, proliferation; cited from earlier work
[4] = design: method as in PMID 32240793; conditions: cited from earlier work
[5] = system: FOSL1 gene expression in U-87 glioblastoma cells; design: method as in Investigator's Brochure; conditions: U-87 cells, ref Investigator's Brochure; read-out: IC50, inhibition of FOSL1 gene expression; cited from earlier work
[6] = system: GLI1 gene expression in MIA-PaCa-2 pancreatic adenocarcinoma cells; design: method as in Investigator's Brochure; conditions: MIA-PaCa-2 cells, ref Investigator's Brochure; read-out: IC50, inhibition of GLI1 gene expression; cited from earlier work
[7] = system: COH69 TNBC PDX-derived model; design: method as in Investigator's Brochure; conditions: COH69, ref Investigator's Brochure; read-out: IC50, colony formation; cited from earlier work
CYP2C9 = system: CYP2C9; design: method as in Investigator's Brochure; conditions: CYP2C9, ref Investigator's Brochure; read-out: IC50, direct inhibition; cited from earlier work
GBM15 GBM PDX = system: GBM15 GBM PDX; design: method as in Unpublished data from Celgene Corporation; conditions: Day 29, ref Unpublished data from Celgene Corporation, cited from earlier work

## Cn1cc(-c2cc(S(C)(=O)=O)ccc2OCC2CC2)c2ccccc2c1=O [trotabresib]
U-2932 (DOX-R)
  IC50: 348 nM
BCRP or MRP2
  transporter inhibition: not an inhibitor
WSU-DLCL2 (DOX-R)
  IC50: ~360 nM
SU-DHL-2 (ABC DLBCL)
  IC50: 100 nM
OCI-LY-10 (ABC DLBCL)
  IC50: 418 nM
OCI-LY-10 (DOX-R)
  IC50: 1100 nM
OAT1
  inhibition of mediated transport: 45.6%
[1]
  direct inhibitory effect: little to no direct inhibitory effect
P-gp
  IC50: 2000 nM
[2]
  oral bioavailability: high oral bioavailability
  t1/2: ~ 60 h
CYP2D6
  IC50: ≥ 13900 nM
OCI-LY-19 (GCB DLBCL)
  IC50: 220 nM
KARPAS-422 (GCB DLBCL)
  IC50: 320 nM
[3]
  IC50: 180 ± 20 nM
SU-DHL-4 (DOX-R)
  IC50: 899 nM
[4]; 3 days on/11 days off
  alternative RP2D: 30 mg/day
[4]; 4 days on/24 days off
  recommended phase II dose (RP2D): 45 mg/day
[5]
  IC50: 30 nM
[6]
  IC50: 240 nM
[7]
  IC50: 70 nM
CYP2C9
  IC50: ≥ 13900 nM
GBM15 GBM PDX; GBM15, 15 mg/kg/dose (5/2)
  mean percent TGI: 65%
GBM15 GBM PDX; GBM15, 25 mg/kg/dose (3/4)
  mean percent TGI: 65%
GBM15 GBM PDX; GBM15, 37.5 mg/kg/dose (2/5)
  mean percent TGI: 70%
